In brackets after ≈: the same amount, converted by molar mass. Counter-ions that a name gives are not always drawn.
Columns and labels:
Format in all cases: physicochemical
[1] = Dissolution of drug in capsule in 0.01N HCl and 0.001N HCl at 37° C.; settings: for Compound 1 released: 125 mg capsule, 37° C., 60 minutes
Method: To assess the feasibility of using Compound 1 in a capsule to support FIH study, a dissolution study with a capsule containing 125 mg Compound 1 free base monohydrate was performed in the media of 0.01N HCl and 0.001N HCl at 37° C. Capsule shell shrinkage was observed. […] Blend in capsule or other formulation approaches may be necessary.
A dissolution study for citrate salt in a capsule in 0.01N HCl was also carried out.

[2] = Solid state chemical and physical stability of free base monohydrate
Method: Chemical Stability Study: Solid state stability of Compound 1 free base monohydrate was evaluated at 80° C. for 2 weeks and 40° C./75% RH, 50° C./75% RH and 60° C. for up to 5 weeks.
This dehydrate form converted back to monohydrate immediately when samples were exposed to room temperature and RH>30%. If RH is in the range of 5-30%, the dehydrate form may take 1-3 days to convert back to monohydrate.

[3] = Solubility study (water, SGF, SIF, preclinical vehicle, bio-relevant media); settings: for Solubility, Concentration: at 24 hours
Method: (§1) Solubility Study: Compound 1 free base pKa was determined to be 5.14. […] Solubility in the preclinical formulation, 0.5% CMC/0.25% Tween 80, was determined to be 0.18 mg/ml at pH 8.1.

[4] = Tablet dissolution in pH 2 phosphate buffer and pH 5 phosphate buffer with 0.1% sodium laureth sulfate; settings: tablets, pH 5 phosphate buffer and 0.1% sodium laureth sulfate
[5] = Solution and suspension stability; settings: 37° C.
Method: The solution stability of Compound 1 free base in water, SGF (pH 1.3), SIF (pH 7.5), and 0.1N NaOH with and without light protection at 37° C. was tested.

[6] = pKa determination
Method: as §1

[7] = Bulk and tap density and flow properties (Carr's Index, Hausner's Ratio)
Method: Needle-like particle shapes have poor powder flow and low densities. […] Reduced drug loadings (dilution of the poor flow component) improved flow characteristics of the resultant blend.
The 5 formulations covered drug loadings of 1.8-23.0% and 1-25 mg strengths. The bulk and tap densities for each formulation are included in Table 30.
Flow property scales for Carr's (Compressibility) Index and Hausner's Ratio are described in Table 37. The flow of the blends was assessed as very poor to passible.

[8] = Solubility of Compound 1 citrate in pH 6.5 phosphate buffer with SLS
Method: Solubility of Compound 1 was determined in various percentages of sodium lauryl sulfate (SLS). 0.03% SLS was selected as the media for dissolution condition 3. Samples were filtered using a 0.2 μm nylon syringe filter, and analyzed by UPLC-UV utilizing the method parameters listed in Table 9.

C[C@]1(C(N)=O)CC[C@@H](n2c(Nc3c(Cl)cc(Cl)cc3Cl)nc3cnc(N[C@@H]4CCOC[C@H]4F)nc32)CC1 (relative stereo) [Compound 1 free base monohydrate, cis-4-[2-{[(3S,4R)-3-fluorooxan-4-yl]amino}-8-(2,4,6-trichloroanilino)-9H-purin-9-yl]-1-methylcyclohexane-1-carboxamide]
Compound 1 released ([1]; 0.001N HCl): 10% | Compound 1 released ([1]; 0.01N HCl): About 80% | solid state chemical stability ([2]; 80° C. for 2 weeks, 40° C./75% RH, 50° C./75% RH and 60° C. up to 5 weeks): chemically relatively stable | time for the dehydrate form to convert back to monohydrate ([2]; RH in the range of 5-30%): 1 to 3 days | physical stability ([2]; heated at 60 and 80° C.): lost water and converted to a dehydrate form | Solubility, Concentration ([3]; FaSSGF): 2810 µg/mL | Solubility, Concentration ([3]; FaSSIF): 260 µg/mL | Solubility, Concentration ([3]; FeSSGF): 4 µg/mL | Solubility, Concentration ([3]; FeSSIF): 2070 µg/mL | pH @ 24 hr ([3]; solubility sample in FaSSGF): 1.84 | pH @ 24 hr ([3]; solubility sample in FaSSIF): 6.48 | pH @ 24 hr ([3]; solubility sample in FeSSGF): 6.31 | pH @ 24 hr ([3]; solubility sample in FeSSIF): 4.94

C[C@]1(C(N)=O)CC[C@@H](n2c(Nc3c(Cl)cc(Cl)cc3Cl)nc3cnc(N[C@@H]4CCOC[C@H]4F)nc32)CC1 (relative stereo) [HCl salt of Compound 1, cis-4-[2-{[(3S,4R)-3-fluorooxan-4-yl]amino}-8-(2,4,6-trichloroanilino)-9H-purin-9-yl]-1-methylcyclohexane-1-carboxamide]
dissolution compared with free base and citrate salt [4]: higher dissolution

C[C@]1(C(N)=O)CC[C@@H](n2c(Nc3c(Cl)cc(Cl)cc3Cl)nc3cnc(N[C@@H]4CCOC[C@H]4F)nc32)CC1 (relative stereo) [Compound 1 free base, cis-4-[2-{[(3S,4R)-3-fluorooxan-4-yl]amino}-8-(2,4,6-trichloroanilino)-9H-purin-9-yl]-1-methylcyclohexane-1-carboxamide]
solution stability, remaining ([5]; 0.1N NaOH without light protection, day 1): 88% | solution stability, remaining ([5]; 0.1N NaOH without light protection, day 4): 61% | solution stability, remaining ([5]; water, SGF (pH 1.3), SIF (pH 7.5), 0.1N NaOH, 4 days, all except 0.1N NaOH without light protection): > 95% | pKa [6]: 5.14

C[C@]1(C(N)=O)CC[C@@H](n2c(Nc3c(Cl)cc(Cl)cc3Cl)nc3cnc(N[C@@H]4CCOC[C@H]4F)nc32)CC1 [Compound 1, cis-4-[2-{[(3S,4R)-3-fluorooxan-4-yl]amino}-8-(2,4,6-trichloroanilino)-9H-purin-9-yl]-1-methylcyclohexane-1-carboxamide]
Bulk Density [7]: 0.2 g/mL | Tap Density [7]: 0.38 g/mL | pKa [6]: ~5.1 | solubility ([3]; 0.5% CMC/0.25% Tween 80 (preclinical formulation), aqueous with cosolvent or surfactant or cyclodextrin, preclinical formulation 0.5% CMC/0.25% Tween 80, pH 8.1, read-out: solubility): 180 µg/mL (≈ 315 µM) | solubility ([3]; pH 4.5, aqueous buffer, read-out: solubility): ~250 µg/mL (≈ 438 µM) | solubility ([3]; simulated gastric fluid (SGF), simulated gastric fluid, simulated gastric fluids (SGF) (pH 1.9), read-out: solubility): 3500 µg/mL (≈ 6130 µM) | solubility ([3]; simulated gastric fluid, low pH (0.1 N HCl), read-out: solubility): ~1700 µg/mL (≈ 2980 µM) | solubility ([3]; simulated intestinal fluid (SIF), pH 7.3, fassgf or other biorelevant, read-out: solubility): 2 µg/mL (≈ 3.5 µM) | solubility ([3]; simulated intestinal fluids (SIF) (pH 7.3)): 2 µg/mL (≈ 3.5 µM) | solubility ([3]; water (pH 8.1), read-out: solubility): 3 µg/mL (≈ 5.26 µM)

C[C@]1(C(N)=O)CC[C@@H](n2c(Nc3c(Cl)cc(Cl)cc3Cl)nc3cnc(N[C@@H]4CCOC[C@H]4F)nc32)CC1 (relative stereo) [Compound 1 citrate, cis-4-[2-{[(3S,4R)-3-fluorooxan-4-yl]amino}-8-(2,4,6-trichloroanilino)-9H-purin-9-yl]-1-methylcyclohexane-1-carboxamide]
dissolution profile compared to freebase monohydrate ([1]; capsule in 0.01N HCl): better dissolution profile | solubility ([8]; 0.01% SLS): 0.000 mg salt/mL | solubility ([8]; 0.02% SLS): 0.001 mg salt/mL | solubility ([8]; 0.03% SLS): 0.054 mg salt/mL | solubility ([8]; 0.05% SLS): 0.336 mg salt/mL | solubility ([8]; 0.1% SLS): 0.807 mg salt/mL

Source: patent US11701362B2, “Compositions and methods of use of cis-4-[2-{[(3S,4R)-3-fluorooxan-4-yl]amino}-8-(2,4,6-trichloroanilino)-9H-purin-9-yl]-1- methylcyclohexane-1-carboxamide” (Celgene Corporation, priority 2017, dated 2023)
